This note sets out measurements from ChEMBL document CHEMBL1201862, “PubChem BioAssay data set” (2004).

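Values below derive from 48-hour exposures of cells grown in 96-well plates, with endpoints linearly interpolated between the two concentrations bracketing the appropriate inhibition level. Here, GI50 denotes the concentration required for 50% inhibition of growth.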 Activity calls are given as the source filed them. Rule as the data show it: active = GI50 up to about 1.1 µM and inactive = higher.

Among the test systems are RPMI-8226; OVCAR-3; MDA-MB-231; IGROV-1; DU-145; RXF 393; M14; A549; NCI-H522; UACC-257; 786-0; UACC-62; SK-MEL-28; HCT-15; SF-268; SK-MEL-2; NCI-H23; LOX IMVI; SW-620; SNB-75.
Common to all, as to test: inhibition of tumour cell growth, NCI panel, 48 h

Consider `Cc1cc(S(=O)(=O)[N-]C(=C(C#N)C#N)[n+]2ccc(N(C)C)cc2)c(SCC(=O)O)cc1Cl`, for which the GI50 in the experiment on RPMI-8226, in the experiment on OVCAR-3, in the experiment on MDA-MB-231, in the experiment with IGROV-1, with DU-145 and in the experiment with RXF 393 was > 100 µM (inactive) in each case. In addition, the GI50 in the experiment with M14 is > 100 µM (inactive); in the experiment on A549, > 100 µM (inactive); with NCI-H522 it was 45.8 µM (inactive); in the experiment on UACC-257, > 100 µM (inactive); in the experiment with 786-0, > 100 µM (inactive); in the experiment with UACC-62 it was > 100 µM (inactive). For the same molecule, the GI50 with SK-MEL-28 was > 100 µM (inactive); in the experiment on HCT-15 it was above 100 µM; in the experiment with SF-268 it was > 100 µM (inactive); in the experiment with SK-MEL-2, > 100 µM (inactive); with NCI-H23, > 100 µM (inactive).
As to `O=C(Nc1nn(C(=O)c2ccc(Cl)cc2)c(=O)s1)c1ccc(Cl)cc1`, the GI50 in the experiment with OVCAR-3 is > 100 µM (inactive); with LOX IMVI, > 100 µM (inactive); with MDA-MB-231, > 100 µM (inactive); in the experiment with IGROV-1 it was > 100 µM (inactive); in the experiment on DU-145 it was > 100 µM (inactive); in the experiment on RXF 393, 46.9 µM (inactive). The GI50 in the experiment with M14, in the experiment on A549, in the experiment with NCI-H522, with UACC-257, with 786-0 and with UACC-62 was > 100 µM (inactive) each time. Also, the GI50 with SW-620 is > 100 µM (inactive); in the experiment with SK-MEL-28 it was > 100 µM (inactive); in the experiment on HCT-15, above 100 µM; with SF-268, > 100 µM (inactive); in the experiment on NCI-H23 it was > 100 µM (inactive).
For `COc1cc(NCC2COc3c(ccc(OC)c3OC)C2=O)c([N+](=O)[O-])cc1OC` (stereo not drawn), the GI50 with RPMI-8226 was 12.3 µM (inactive); with OVCAR-3 it was > 100 µM (inactive); in the experiment with LOX IMVI it was > 100 µM (inactive); with MDA-MB-231, 79.1 µM (inactive); with IGROV-1, > 100 µM (inactive); in the experiment on DU-145, > 100 µM (inactive). The GI50 in the experiment on M14 was > 100 µM (inactive); with A549, > 100 µM (inactive); with NCI-H522 it was 55.7 µM (inactive); in the experiment with SNB-75 it was 60.1 µM (inactive); in the experiment on UACC-257 it was > 100 µM (inactive); in the experiment with 786-0, 15.6 µM (inactive). The GI50 was 77.8 µM (inactive) in the experiment on UACC-62; > 100 µM (inactive) with SW-620; > 100 µM (inactive) with SK-MEL-28; above 100 µM in the experiment on HCT-15; 67.3 µM (inactive) in the experiment on SF-268; > 100 µM (inactive) in the experiment on SK-MEL-2. Also, in the experiment with NCI-H23, the GI50 was > 100 µM (inactive).
For the molecule `COC(=O)C(C)(C)NC(=O)C(Cc1ccccc1)Nc1ncnc2c1ncn2-c1ccc(OC)cc1` (stereo not drawn), the GI50 in the experiment on RPMI-8226 is 72.9 µM (inactive); with OVCAR-3 it was 38.8 µM (inactive); in the experiment with LOX IMVI it was 34.2 µM (inactive); with MDA-MB-231, 28.6 µM (inactive); with IGROV-1, 15 µM (inactive); in the experiment on DU-145, 47.3 µM (inactive). Further, the GI50 in the experiment on M14 was 42.7 µM (inactive); with A549, 22.5 µM (inactive); in the experiment on NCI-H522, 13.1 µM (inactive); in the experiment with SNB-75, 24.1 µM (inactive); in the experiment on UACC-257, 39.9 µM (inactive); with 786-0, 28.8 µM (inactive). For the same molecule, the GI50 was 39.1 µM (inactive) with UACC-62; 19.9 µM (inactive) in the experiment on SW-620; 33.6 µM (inactive) in the experiment with SK-MEL-28; 34.8 µM with HCT-15; 31 µM (inactive) in the experiment on SF-268; 37.5 µM (inactive) in the experiment with SK-MEL-2. Besides, the GI50 in the experiment with NCI-H23 is 56.8 µM (inactive).
With `Cc1ccc(S(=O)(=O)N2CCCSCCN(S(=O)(=O)c3ccc(C)cc3)CCCSCC2)cc1`, the GI50 with RPMI-8226, with OVCAR-3, in the experiment on MDA-MB-231, with IGROV-1, in the experiment on DU-145 and with RXF 393 was > 100 µM (inactive) each time. Further, the GI50 in the experiment with M14, in the experiment on A549, in the experiment with SNB-75, with UACC-257, in the experiment with 786-0 and in the experiment with UACC-62 was > 100 µM (inactive) in each case. The GI50 with SW-620, in the experiment on SK-MEL-28, in the experiment with SF-268, with SK-MEL-2 and in the experiment with NCI-H23 was > 100 µM (inactive) each time.
As to `CC(=O)O[C@@H](C1C[C@@H](C)[C@H]2[C@@](O)(O1)[C@H](O)[C@@]1(C)C3=CC[C@H]4C(C)(C)[C@@H](OC5OCC(O)C(O)C5O)CC[C@@]45C[C@@]35CC[C@]21C)C(C)(C)O` (stereo partly drawn), the GI50 in the experiment on RPMI-8226 is 18 µM (inactive); in the experiment on OVCAR-3, 20.7 µM (inactive); with LOX IMVI, 19.5 µM (inactive); with MDA-MB-231, 18.3 µM (inactive); with IGROV-1 it was 33.2 µM (inactive); in the experiment with DU-145 it was 25.5 µM (inactive). Also, the GI50 was 15.9 µM (inactive) in the experiment on RXF 393; 29.3 µM (inactive) in the experiment on M14; 30.6 µM (inactive) in the experiment on A549; 17.8 µM (inactive) in the experiment on NCI-H522; 19.7 µM (inactive) with UACC-257; 26.1 µM (inactive) with 786-0. In addition, the GI50 is 18.5 µM (inactive) with UACC-62; 30.2 µM (inactive) in the experiment on SW-620; 23.2 µM (inactive) in the experiment on SK-MEL-28; 28.4 µM in the experiment on HCT-15; 34 µM (inactive) in the experiment on SF-268; 18.6 µM (inactive) in the experiment with SK-MEL-2. Besides, the GI50 with NCI-H23 was 22.4 µM (inactive).
As to `O=C(O)CC(C(=O)O)C1c2ccccc2-c2ccccc21` (stereo not drawn), the GI50 was 41.1 µM (inactive) with RPMI-8226; 35.5 µM (inactive) with OVCAR-3; 38.5 µM (inactive) in the experiment on LOX IMVI; > 100 µM (inactive) in the experiment with MDA-MB-231; 70 µM (inactive) in the experiment with IGROV-1; 17.9 µM (inactive) with DU-145. Also, the GI50 with RXF 393 was > 100 µM (inactive); in the experiment on M14 it was > 100 µM (inactive); with A549 it was 56.4 µM (inactive); with NCI-H522, 47.9 µM (inactive); with UACC-257, > 100 µM (inactive); with 786-0, > 100 µM (inactive). In addition, the GI50 in the experiment with UACC-62 was > 100 µM (inactive); with SW-620, > 100 µM (inactive); in the experiment with SK-MEL-28 it was > 100 µM (inactive); with HCT-15, above 100 µM; with SF-268 it was 79.6 µM (inactive); in the experiment with SK-MEL-2, > 100 µM (inactive). Also, the GI50 in the experiment with NCI-H23 is 92.3 µM (inactive).
`C=C[C@@H]1C[C@]2(C(=O)OC)Cc3nc4ccccc4nc3CC(C(=O)OC)=C2O1`: the GI50 with RPMI-8226 was 34 µM (inactive); with OVCAR-3 it was 23 µM (inactive); in the experiment with LOX IMVI it was 45.6 µM (inactive); in the experiment on MDA-MB-231 it was 92.9 µM (inactive); with IGROV-1, 61.2 µM (inactive); in the experiment on DU-145, > 100 µM (inactive). Also, the GI50 in the experiment with RXF 393 was > 100 µM (inactive); with M14, 80.7 µM (inactive); in the experiment with A549, > 100 µM (inactive); in the experiment on NCI-H522 it was 64.6 µM (inactive); with UACC-257 it was 76.7 µM (inactive); in the experiment on 786-0, > 100 µM (inactive). Besides, the GI50 with UACC-62 is > 100 µM (inactive); with SW-620, 58.5 µM (inactive); with SK-MEL-28 it was 53.8 µM (inactive); with HCT-15, 57.1 µM; in the experiment on SF-268, > 100 µM (inactive); in the experiment on SK-MEL-2 it was > 100 µM (inactive). Also, the GI50 in the experiment on NCI-H23 is 69.8 µM (inactive).
Regarding `CC(C)NC(=O)OCC[S+]([O-])c1c(Cl)c(Cl)nn1C` (stereo not drawn), the GI50 with RPMI-8226 was 64.9 µM (inactive); in the experiment on OVCAR-3, 40.2 µM (inactive); in the experiment with LOX IMVI, 0.724 µM (active); in the experiment on MDA-MB-231 it was 28.6 µM (inactive); in the experiment on IGROV-1, 37.9 µM (inactive); in the experiment on DU-145, > 100 µM (inactive). The GI50 in the experiment on M14 is 21.1 µM (inactive); with A549, > 100 µM (inactive); in the experiment with NCI-H522, 18.5 µM (inactive); in the experiment on SNB-75, > 100 µM (inactive); with UACC-257, > 10 µM (inactive); with 786-0 it was 24.9 µM (inactive). The GI50 in the experiment with UACC-62 was 26.6 µM (inactive); with SW-620 it was 36.2 µM (inactive); in the experiment with SK-MEL-28, 28.5 µM (inactive); in the experiment with HCT-15 it was 20 µM; with SF-268, > 100 µM (inactive); with SK-MEL-2 it was > 100 µM (inactive). Also, the GI50 with NCI-H23 was 42.9 µM (inactive).
For `O=C(/C=C/c1ccccc1)CCc1c(O)c2ccccc2oc1=O`, the GI50 in the experiment with RPMI-8226 was 32.3 µM (inactive); in the experiment with OVCAR-3, 49.4 µM (inactive); in the experiment with LOX IMVI, 52.5 µM (inactive); in the experiment with MDA-MB-231 it was 44 µM (inactive); in the experiment on IGROV-1 it was > 100 µM (inactive); with DU-145 it was > 100 µM (inactive). The GI50 was > 100 µM (inactive) in the experiment on M14; 83.8 µM (inactive) in the experiment with A549; 74.3 µM (inactive) in the experiment on NCI-H522; > 100 µM (inactive) in the experiment with SNB-75; > 100 µM (inactive) with UACC-257; > 100 µM (inactive) in the experiment with 786-0. Also, the GI50 with UACC-62 is 71 µM (inactive); in the experiment on SW-620, 53.8 µM (inactive); in the experiment on SK-MEL-28, > 100 µM (inactive); with HCT-15, 76.7 µM; with SF-268, > 100 µM (inactive); in the experiment with SK-MEL-2, 71.9 µM (inactive). The GI50 in the experiment with NCI-H23 is 65.5 µM (inactive).
For the molecule `CC1(C)CC[C@]2(C(=O)O)CC[C@]3(C)C(=CCC4=C5C[C@H](O)[C@H](O)[C@@](C)(CO)[C@@]5(C)CC[C@]43C)[C@@H]2C1`, the GI50 is 43.8 µM (inactive) in the experiment on RPMI-8226; > 100 µM (inactive) in the experiment on OVCAR-3; 35.7 µM (inactive) in the experiment with LOX IMVI; > 100 µM (inactive) with MDA-MB-231; 36.9 µM (inactive) with IGROV-1; 33.4 µM (inactive) with DU-145. The GI50 is 66.2 µM (inactive) in the experiment on M14; 38.5 µM (inactive) with A549; 46.2 µM (inactive) in the experiment on NCI-H522; 26.7 µM (inactive) with SNB-75; 71 µM (inactive) in the experiment with UACC-257; 31.8 µM (inactive) in the experiment with 786-0. The GI50 in the experiment with UACC-62 was 46 µM (inactive); in the experiment with SW-620, 95.1 µM (inactive); with SK-MEL-28, > 100 µM (inactive); with HCT-15, 38.9 µM; in the experiment with SF-268 it was 51.4 µM (inactive); in the experiment on SK-MEL-2 it was 80.5 µM (inactive). Further, the GI50 in the experiment with NCI-H23 is 37.9 µM (inactive).
